One data set deals with R-1 cell. The experiment in a line: Cytotoxicity / cell viability in R-1 cell. Format: cell-based, human. Particulars: R-1 cell, 100 μM. The protocol: (§1) Cytotoxicity of 17-DMAG was measured by using a reagent MTS [3-(4,5-dimethylthiazol-2-yl)-5-(3-carboxylmethoxyphenyl)-2-(4-sulfophenyl)-2H-tetrazolium] (Promega, Madison, Wis., USA) according to the protocols of the manufacturer. The experiment was carried out as follows.
(§2) Huh7 or R-1 cells (2×10^4 cell/well) were seeded in a 96-well plate and treated with 17-DMAG at different concentrations for 72 hours. Then, the culture medium was removed and a MTS substrate dissolved in the culture medium containing 5% FBS was added to each well of the plate. The cells were cultured at 37° C. for 1 hour, and absorbance at 490 nm was read in a 96-well micro plate automatic reading system using GloMax-Multi detection system (Promega).
(§3) An experiment was carried out to check whether or not 17-DMAG inhibited virus RNA replication in an R-1 cell in which autonomous replication of a genotype 1b HCV subgenomic replicon RNA was maintained. Before antiviral activity of 17-DMAG was evaluated, an MTS assay was carried out to evaluate whether or not the drug interfered with cell viability. To be specific, the R-1 cell loaded with a selective HCV subgenomic replicon (upper diagram) and its parental cell line Huh7 were treated with 17-DMAG at a certain concentration for 72 hours, and cell viability was evaluated by the MTS assay.

Data set [1] concerns genotype 1b HCV subgenomic replicon (R-1 cell line). The experiment in a line: HCV replication (HCV RNA by real-time RT-PCR, NS5B protein by Western blot) in R-1 subgenomic replicon cells. The note with it: 48 hours. Format: cell-based, hepatitis C virus genotype 1b. An excerpt: In order to check a PRK2 phosphorylation inhibition effect of the novel inhibitors obtained in Example 1, R-1 cell line harboring HCV subgenomic replicons was used.
The R-1 cell line was comprised of cis-acting RNA elements of 5′ and 3′-end untranslated regions (UTR) essential for replication of HCV RNA, a selection marker inserted to select a replicated RNA into a portion from which a structural protein coding site was removed, and a non-structural protein (NS3-NS5B)-coding gene required for replication. In the replicon, the selection marker was expressed by the HCV 5′-UTR and internal ribosome entry site (IRES) as a part of a coding gene of a core protein as a structural protein and capsid protein, and HCV non-structural proteins were expressed by IRES of EMCV. In order to obtain replicon cells, a HCV subgenomic replicon RNA was obtained by means of in vitro transcription by using a T7 RNA polymerase, free ribonucleotide was removed by using a spin column, and introduced into a hepatocellular carcinoma cell line by electroporation. In the presence of G418, a stable cell line, i.e. a cell line showing a resistance to G418 through replication of HCV subgenome, was obtained. Expression of the HCV non-structural proteins in this cell line was analyzed by Western blot to confirm that replication was being carried out, and the R-1 cell line was constructed. It was observed that an HCV RNA copy number was about 10^7 copies/mL by a quantitative real-time PCR analysis using a TaqMan probe. The R-1 cell line was a cell line in which HCV RNA replication was being carried out, and thus it could be used to evaluate an HCV replication inhibition effect of a PRK2 activity inhibitor.
Then, after the R-1 cell line was treated with each of 5 screened PRK2 inhibitors, HA1077 currently and clinically used as a PRK2 activity inhibitor, and Y27632 having a PRK2 activity inhibition effect at a final concentration of 20 μM for 48 hours, levels of HCV NS5B protein and HCV RNA in cell lysates (50 μg) were analyzed by Western blot and real-time RT-PCR.
(§4) To do so, after the two cell lines were treated with the compound #17 at higher concentrations (60 and 100 μM) than 20 μM for 48 hours, an HCV RNA genome level was checked by a real-time RT-PCR analysis. A value was a mean±standard deviation (SD) of three independent measurements. HCV RNA titer was quantified by real-time PCR analysis. Three independent experiments were performed in triplicate.
5 derivatives (#18 to #22: refer to FIG. 2) were produced based on the inhibitor #17 showing the best effect. After the R-1 cell line was treated with each of these inhibitors or HA1077 and Y27632 at a final concentration of 20 μM for 48 hours, an HCV RNA genome level was checked by a real-time RT-PCR analysis and expressed in % with respect to a control treated with DSMO. Three independent experiments were conducted repeatedly three times. Data were expressed by mean±SD of the three experiments.
Total RNA was extracted from R-1 or HCV (JFH1)-infected cells using TRIzol LS reagent (Invitrogen, Carlsbad, Calif., USA) and purified according to the manufacturer's instructions. HCV RNA levels were quantified by RT-PCR using a primer pair and TaqMan probe targeting a region within the HCV 5′-UTR as described previously. Cellular glyceraldehyde-3-phosphate dehydrogenase was used as an internal control. Assays were performed using the DyNAmo Probe 2-step qRT-PCR Kit (Finnzymes, Espoo, Finland) and a CHROMO4 continuous fluorescence detector (Bio-Rad, Hercules, Calif., USA), according to the manufacturer's instructions.
Therefore, anti-HCV activity of 17-DMAG in the R-1 cell was tested at a level lower than 50 nM. To do so, the R-1 cell was treated with a vehicle (0.25% DMSO) or 17-DMAG for 72 hours and the cell lysates (50 μg) and antibodies specific to the proteins were immunoblotted to measure levels of the proteins. An anti-α-tubulin antibody (lower end panel) was used as an internal loading control. […]
Background: Real-time PCR tracks product formation cycle by cycle.

Data set [2] has as its system genotype 2a HCV (JFH1)-infected Huh7 cells. The experiment in a line: HCV RNA level in Huh7 cells infected with HCV (JFH1). Format: cell-based, hepatitis C virus genotype 2a. The note with it: Huh7 cell infected with HCV (JFH-1), 60 and 100 μM, 48 hours. The protocol: as §4
Full-length, infectious HCV RNA of the genotype 2a HCV clone JFH1 was prepared by in vitro transcription using the MEGAscript T7 kit (Ambion, Austin, Tex., USA) and electroporated into Huh7 cells as described previously. Briefly, at 72 h post electroporation, culture medium was collected, cleared by low-speed centrifugation, and passed through a 0.45-μm filter (Millipore, Billerica, Mass., USA) before being used for infection of Huh7 cells. Cells were infected with HCV at a multiplicity of infection of 0.3 by adsorption for 3 h with periodic rocking, then washed three times with phosphate-buffered saline (PBS) and maintained in complete DMEM. […]
Total RNA was extracted from R-1 or HCV (JFH1)-infected cells using TRIzol LS reagent (Invitrogen, Carlsbad, Calif., USA) and purified according to the manufacturer's instructions. HCV RNA levels were quantified by RT-PCR using a primer pair and TaqMan probe targeting a region within the HCV 5′-UTR as described previously. […] Assays were performed using the DyNAmo Probe 2-step qRT-PCR Kit (Finnzymes, Espoo, Finland) and a CHROMO4 continuous fluorescence detector (Bio-Rad, Hercules, Calif., USA), according to the manufacturer's instructions.
In order to analyze whether or not 17-DMAG can inhibit replication in a cell infected with HCV, an experiment was carried out with the genotype 2a HCV infectious clone JFH1, which produces infectious virions in Huh7 or Huh7-derived cell lines. […] After 72 hours, total cellular RNA was extracted and HCV remaining in the infected cell was analyzed by quantitative RT-PCR.

For a further data set, the system named is Huh7 cell. Briefly: Cytotoxicity / cell viability (MTS) in Huh7 cell. Format: cell-based, human. Particulars: 100 μM. On the procedure:
as §1, §2, §3

The target in a further data set is recombinant active PRK2 (Homo sapiens, UniProt Q16513). The experiment in a line: In vitro kinase assay: recombinant PRK2 phosphorylating HCV NS5B. The data set is classed as biochemical. The note with it: gamma-32P ATP and 100 μM ATP, autoradiography. On the procedure:
Then, in order to test an HCV NS5B protein phosphorylation inhibition effect of the screened novel PRK2 inhibitor, in vitro kinase assay was carried out.
Using a recombinant active PRK2 and purified HCV NS5B protein as substrates, the screened inhibitors #11 and #17 were treated in the presence of gamma-^32P ATP and 100 μM ATP. The reaction mixture was separated by SDS-PAGE (8% gel), and a result thereof was checked by autoradiography.
Finally, PRK2 and HCV NS5B phosphorylation inhibition effects of the compounds #18, #19, #20, #21 and #22 as the derivatives of the compound #17 were analyzed through in vitro kinase assay.
A 1 μM recombinant PRK2 and 10 μM HCV NS5B were phosphorylated for 30 minutes in the presence of 10 μCi γ-^32P ATP and 100 μM ATP. The reaction mixture was separated by SDS-PAGE (8% gel), and a result thereof was checked by autoradiography.

“Also recorded” adds a separate entry of the source.

Sequence of recombinant active PRK2 (Q16513 whole entry): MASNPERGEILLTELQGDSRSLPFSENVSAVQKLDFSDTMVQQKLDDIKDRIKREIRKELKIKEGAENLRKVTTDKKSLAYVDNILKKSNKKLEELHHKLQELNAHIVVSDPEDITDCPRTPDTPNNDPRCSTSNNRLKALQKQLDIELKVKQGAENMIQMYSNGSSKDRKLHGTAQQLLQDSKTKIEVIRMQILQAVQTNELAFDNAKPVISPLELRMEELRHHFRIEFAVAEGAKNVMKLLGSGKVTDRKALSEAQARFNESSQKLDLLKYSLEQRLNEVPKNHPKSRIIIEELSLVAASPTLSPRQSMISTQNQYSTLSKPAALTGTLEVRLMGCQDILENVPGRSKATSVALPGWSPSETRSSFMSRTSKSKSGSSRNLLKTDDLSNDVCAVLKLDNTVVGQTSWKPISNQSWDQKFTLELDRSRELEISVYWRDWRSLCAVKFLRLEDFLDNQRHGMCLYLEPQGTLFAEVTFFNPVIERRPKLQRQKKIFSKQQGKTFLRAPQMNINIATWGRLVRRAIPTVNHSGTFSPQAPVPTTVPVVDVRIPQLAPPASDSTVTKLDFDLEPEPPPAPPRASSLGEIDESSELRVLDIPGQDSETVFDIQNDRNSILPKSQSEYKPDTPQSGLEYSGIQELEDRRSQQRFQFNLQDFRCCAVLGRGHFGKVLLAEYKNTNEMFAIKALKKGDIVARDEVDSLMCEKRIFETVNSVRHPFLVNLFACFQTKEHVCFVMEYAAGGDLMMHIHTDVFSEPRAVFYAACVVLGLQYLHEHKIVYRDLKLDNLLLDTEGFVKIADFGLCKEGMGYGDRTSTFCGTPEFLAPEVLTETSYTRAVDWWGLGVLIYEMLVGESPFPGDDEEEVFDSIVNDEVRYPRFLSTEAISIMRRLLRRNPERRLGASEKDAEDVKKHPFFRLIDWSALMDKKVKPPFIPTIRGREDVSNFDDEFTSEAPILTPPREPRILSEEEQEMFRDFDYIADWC

As to `O=C1NCCCC1C(=O)Nc1ccncc1` (stereo not drawn) [compound #17, 2-oxo-N-4-pyridinyl-3-piperidinecarboxamide], the “activity of the cells (cytotoxicity)” value in the data set with R-1 cell and in the data set with Huh7 cell was “not greatly inhibited” in each case. In addition, the “decrease of HCV RNA titers with respect to DMSO control” value in data set [1] (R-1 cell line, 20 μM) is listed as “about 50%”. Further, the “HCV RNA titers” value in data set [1] (R-1 cell, 60 and 100 μM) was “decreased in a dosage-dependent manner”; in data set [2] it was “decreased in a dosage-dependent manner; also recorded: slightly higher in a cell infected with JFH-1 than in an HCV subgenomic replicon cell”. Besides, on recombinant active PRK2, the “inhibition of in vitro phosphorylation of HCV NS5B protein” value was “inhibit phosphorylation of HCV NS5B protein”.

For the origin of these results see patent publication US9249159B2, “Composition for treating hepatitis C virus, regulating phosphorylation of replicase” (Industry-Academic Cooperation Foundation, Yonsei University, priority 2011, dated 2016).
